According to publication PMC8430704, “Novel Sulfonamide-Based Carbamates as Selective Inhibitors of BChE” (International Journal of Molecular Sciences, 2021):

What was measured:
AChE from electric eel = biological target: T1, AChE from electric eel (Electrophorus electricus, UniProt O42275); assay: AChE inhibition, modified Ellman's method; format: biochemical
T1 construct: from tissue
Method: (§1) The ability of all synthesized derivatives to inhibit eeAChE (acetylcholinesterase from electric eel, Electrophorus electricus) and eqBChE (butyrylcholinesterase from equine serum) was determined in vitro using the modified Ellman´s method. […] Ellmanʼs method is widely used for measuring cholinesterase activity and the efficiency of cholinesterase inhibitors. The principle of this simple method is the determination of the SH and -S-S- groups. The activity of the cholinesterase is measured indirectly by quantifying the concentration of 2-nitro-5-sulfanylbenzoic acid ion formed in the reaction between 5,5′-dithiobis-2-nitrobenzoic acid (DTNB) and thiocholine (i.e., the product of the acetylthiocholine hydrolysis catalysed by cholinesterase).
(§2) All studied compounds were dissolved in DMSO (concentration 0.01 M) and diluted in demineralized water (concentration 0.001 M). The ability of the studied compounds to inhibit eeAChE and eqBChE was determined using modified Ellman´s method at 25 °C in the presence of phosphate buffered saline (PBS, 0.1 M, pH 7.4) in a glass cuvette with 1 cm optical path. The enzyme activity in the total reaction mixture (2 mL) was 0.2 U/mL; the concentration of acetylthiocholine (ATCh) or butyrylthiocholine (BTCh) was 40 μM; and the concentration of DTNB was 0.1 mM for all reactions. The inhibitory activity of the studied derivatives was evaluated based on the ratio v0/vi (v0 is the rate of ATCh or BTCh hydrolysis in the absence of the inhibitor, vi is the rate of ATCh or BTCh hydrolysis in the presence of the inhibitor). The IC50 value was obtained from the dependence v0/vi on the concentration of the tested compound (inhibitor).
(§3) The determination of v0 was done as follows. Into the cuvette, PBS (0.1 M, pH 7.4), DTNB, and ATCh (BTCh) were placed. The enzymatic reaction was started by adding the enzyme. […] The measurement was performed at least in triplicate, and average v0 was determined.
(§4) Then, vi (for the given concentration of inhibitor) was determined. Into the cuvette, DTNB, ATCh (BTCh), a chosen volume of the suitably diluted inhibitor (to achieve the required concentration of inhibitor in the total reaction mixture), and a certain volume of PBS (to achieve the total volume of the reaction mixture 2 mL after adding the enzyme) were placed. The enzymatic reaction was started by adding the enzyme. […] Five different concentrations of the inhibitor were used, and each measurement was performed at least in duplicate.

BChE from equine serum [1] = biological target: T2, BChE from equine serum (Equus caballus, UniProt P81908); assay: BChE inhibition, modified Ellman's method; format: biochemical; conditions: for IC50: IC50 (µM) BChE, eqBChE, modified Ellman's method, 25 °C, PBS pH 7.4, mean ± SD, n = 3; for SI (selectivity index) = IC50 (AChE)/IC50 (BChE): value over 1 = more potent inhibition of BChE; for fold higher inhibitory activity against BChE than rivastigmine: ratio of BChE IC50 vs RIV
T2 construct: butyrylcholinesterase from equine serum; from tissue; host or cells: equine serum
Method: Based on IC50 values for both cholinesterases, selectivity indexes (SI) as the ratio of IC50 for AChE/IC50 for BChE to quantify the preference for BChE were calculated.
as §1, §2, §3, §4

BChE from equine serum [2] = biological target: T2, BChE from equine serum; assay: Reactivation (decarbamylation) of inhibited BChE; format: biochemical; conditions: BChE from equine serum inhibited ≥ 95%, dilution into PBS
Method: The procedure is described in Section 3.4.
Monitoring of enzyme reactivation was performed as follows. […] The excess inhibitor was removed by dilution into PBS. Samples were withdrawn at successive time points and assayed to measure recovery of enzymatic activity (Ellman´s method was used). […] All experiments were performed in duplicate at least.

BChE from equine serum [3] = biological target: T2, BChE from equine serum; assay: Carbamylation of BChE (progressive inhibition kinetics); format: biochemical; conditions: from kobs vs. inhibitor concentration
Method: The evaluation of BChE carbamylation was performed on the basis of the measured dependences % residual activity vs. time in the presence of appropriate concentration of inhibitor. […] These dependences were evaluated by non-linear regression and the pseudo-first-order rate constants kobs for progressive inhibition at several inhibitor concentrations were obtained.
The decrease in enzyme activity over time due to inhibitor binding was monitored by the Ellman´s method. Pursuant the procedure described in Carletti [86], the determination was performed subsequently: the reaction mixture containing PBS (0.1 M, pH 7.4), BChE and chosen inhibitor in an appropriate concentration was prepared and intensively stirred. In given times DTNB and BTCh were added to the sample withdrawn from stirred reaction mixture, quickly mixed and absorbance was measured. Consequently, the enzyme activity was determined. Based on knowledge of enzyme activity in the absence of the inhibitor (i.e., 100% activity), the percentages of residual activity in presence of the inhibitor were calculated. Then the dependence of percentage of residual activity vs. time was constructed [87]. By nonlinear regression of these dependences the values of kobs were obtained and subsequently rate constants for carbamylation were calculated. All experiments were performed in duplicate at least.

human BChE [4] = conditions: cited from earlier work
human BChE [5] = conditions: cited from earlier work; remark: listed apart in the source
[6] = Preliminary stability test (decomposition in buffer, HPLC)
Method: pH (6, 7.4, 8). Measurement of these degradations was performed by HPLC in reverse phase
acetonitrile/water (98:2). The compound was stirred in a tempered buffer (37 °C) of appropriate
pH and a sample was taken for HPLC analysis at a specified time.

T2 sequence (P81908 whole entry): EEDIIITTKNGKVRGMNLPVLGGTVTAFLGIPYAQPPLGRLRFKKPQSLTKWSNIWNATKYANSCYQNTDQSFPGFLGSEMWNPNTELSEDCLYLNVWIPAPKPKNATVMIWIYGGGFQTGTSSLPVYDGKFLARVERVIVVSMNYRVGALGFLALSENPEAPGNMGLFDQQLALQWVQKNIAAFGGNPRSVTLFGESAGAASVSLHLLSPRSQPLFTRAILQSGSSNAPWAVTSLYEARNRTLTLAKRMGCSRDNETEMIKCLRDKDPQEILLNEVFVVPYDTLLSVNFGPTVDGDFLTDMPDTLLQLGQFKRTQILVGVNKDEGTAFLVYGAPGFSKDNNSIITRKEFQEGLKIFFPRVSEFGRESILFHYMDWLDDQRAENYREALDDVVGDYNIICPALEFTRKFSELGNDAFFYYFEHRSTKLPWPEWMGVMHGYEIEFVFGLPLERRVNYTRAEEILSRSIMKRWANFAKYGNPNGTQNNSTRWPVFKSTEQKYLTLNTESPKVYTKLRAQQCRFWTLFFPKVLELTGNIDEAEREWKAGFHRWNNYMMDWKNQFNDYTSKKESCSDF
T1 sequence (O42275 24-633): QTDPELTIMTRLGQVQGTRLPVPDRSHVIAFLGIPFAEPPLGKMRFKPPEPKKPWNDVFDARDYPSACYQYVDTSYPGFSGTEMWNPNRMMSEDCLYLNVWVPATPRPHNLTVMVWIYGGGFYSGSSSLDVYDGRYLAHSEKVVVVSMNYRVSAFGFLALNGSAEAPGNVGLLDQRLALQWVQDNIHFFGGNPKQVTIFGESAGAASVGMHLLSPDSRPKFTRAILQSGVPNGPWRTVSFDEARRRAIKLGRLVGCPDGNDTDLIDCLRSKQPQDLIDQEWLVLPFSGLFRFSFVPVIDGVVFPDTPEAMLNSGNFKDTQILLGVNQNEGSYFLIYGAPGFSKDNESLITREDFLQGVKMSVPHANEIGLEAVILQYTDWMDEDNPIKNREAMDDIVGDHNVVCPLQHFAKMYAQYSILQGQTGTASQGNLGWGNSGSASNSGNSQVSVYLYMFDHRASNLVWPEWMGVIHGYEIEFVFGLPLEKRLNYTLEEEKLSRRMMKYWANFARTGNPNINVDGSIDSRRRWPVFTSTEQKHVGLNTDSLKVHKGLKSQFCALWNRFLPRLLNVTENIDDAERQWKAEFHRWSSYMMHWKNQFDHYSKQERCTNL

Compound | IC50 (AChE from electric eel) | IC50 (BChE from equine serum [1]) | SI (selectivity index) = IC50 (AChE)/IC50 (BChE) (BChE from equine serum [1]) | further results
CC(C)C[C@@H](CS(=O)(=O)Nc1ccccc1)NC(=O)OCc1ccccc1 [Compound 5d, Benzyl [(2S)-4-methyl-1-(phenylsulfamoyl)pentan-2-yl]carbamate] | 55.6 ± 1.38 µM | 16.54 ± 0.1 µM | 3.36 | –
CCCNS(=O)(=O)C[C@H](CC(C)C)NC(=O)OCc1ccccc1 [Compound 5e, Benzyl [(2S)-4-methyl-1-(propylsulfamoyl)pentan-2-yl]carbamate] | 108 ± 2.39 µM | 58.9 ± 1.88 µM | 1.84 | –
O=C(N[C@@H](Cc1ccccc1)CS(=O)(=O)Nc1ccc(Cl)c(Cl)c1)OCc1ccccc1 [Compound 5g, Benzyl {(2S)-1-[(3,4-dichlorophenyl)sulfamoyl]-3-phenylpropan-2-yl}carbamate] | 78.83 ± 0.63 µM | 12.6 ± 0.31 µM | 6.25 | –
CC(C)C[C@@H](CS(=O)(=O)NCc1ccccc1)NC(=O)OCc1ccccc1 [Compound 5c, Benzyl [(2S)-1-(benzylsulfamoyl)-4-methylpentan-2-yl]carbamate] | 91.8 ± 4.89 µM | 8.52 ± 0.32 µM | – | fold higher inhibitory activity against BChE than rivastigmine (BChE from equine serum [1]): approximately 5 fold
CC(C)C[C@@H](CS(=O)(=O)NCc1ccc(Cl)cc1)NC(=O)OCc1ccccc1 [Compound 5j, Benzyl {(2S)-1-[(4-chlorobenzyl)sulfamoyl]-4-methylpentan-2-yl}carbamate] | 67.47 ± 0.37 µM | 6.57 ± 0.12 µM | – | reactivation of BChE after 24 h (BChE from equine serum [2]): 37%; fold higher inhibitory activity against BChE than rivastigmine (BChE from equine serum [1]): approximately 5 fold; apparent bimolecular rate constant (ki) of carbamylation (BChE from equine serum [3]): 1.084 ± 0.0535 M⁻¹ s⁻¹
CCN(C)C(=O)Oc1cccc([C@H](C)N(C)C)c1 [RIV, rivastigmine] | – | – | – | bimolecular rate constant for the carbamylation (human BChE [4]): 1500 M⁻¹ s⁻¹; reactivation of human BChE after 24 h (human BChE [5]; 24 h): < 10%
C[C@@H](CS(=O)(=O)NCc1ccccc1)NC(=O)OCc1ccccc1 [Compound 5a, Benzyl [(2S)-1-(benzylsulfamoyl)propan-2-yl]carbamate] | 90.6 ± 5.7 µM | 100 ± 4.26 µM | 0.90 | –
O=C(N[C@@H](Cc1ccccc1)CS(=O)(=O)Nc1ccc2c(c1)OCO2)OCc1ccccc1 [Compound 5h, Benzyl [(2S)-1-(1,3-benzodioxol-5-ylsulfamoyl)-3-phenylpropan-2-yl]carbamate] | 61.39 ± 0.47 µM | 11.5 ± 0.28 µM | 5.32 | –
COc1ccccc1CNS(=O)(=O)C[C@H](CC(C)C)NC(=O)OCc1ccccc1 [Compound 5k, Benzyl {(2S)-1-[(2-methoxybenzyl)sulfamoyl]-4-methylpentan-2-yl}carbamate] | 150 ± 3.82 µM | – | – | starting material remaining ([6]; buffer pH 6, 37 °C, after 6 hrs): 13%; substance decomposed in the first hour ([6]; buffer pH 6, 37 °C, first hour): 75%; starting material remaining ([6]; buffer pH 7.4, 37 °C, 48 hours): 36%; starting material remaining ([6]; buffer pH 8, 37 °C, 4 hours): 5%
O=C(N[C@@H](Cc1ccccc1)CS(=O)(=O)N[C@@H]1CCCO1)OCc1ccccc1 [Compound 5i, Benzyl {(2S)-1-phenyl-3-[(2S)-tetrahydrofuran-2-ylsulfamoyl]propan-2-yl}carbamate] | 61.7 ± 1.47 µM | 112 ± 3.41 µM | 0.55 | –
CC(C)C[C@@H](CS(=O)(=O)NCCc1ccccc1)NC(=O)OCc1ccccc1 [Compound 5f, Benzyl {(2S)-4-methyl-1-[(2-phenylethyl)sulfamoyl]pentan-2-yl}carbamate] | 115 ± 6.22 µM | 15.3 ± 0.38 µM | 7.50 | –
CC(C)C[C@@H](CS(=O)(=O)NCc1ccc(F)c(F)c1)NC(=O)OCc1ccccc1 [Compound 5l, Benzyl {(2S)-1-[(3,4-difluorobenzyl)sulfamoyl]-4-methylpentan-2-yl}carbamate] | 92.9 ± 2.47 µM | 55.6 ± 1.38 µM | 1.67 | –
CC(C)C[C@@H](CS(=O)(=O)NCc1ccco1)NC(=O)OCc1ccccc1 [Compound 5m, Benzyl {(2S)-1-[(furan-2-ylmethyl)sulfamoyl]-4-methylpentan-2-yl}carbamate] | 131.8 ± 0.42 µM | 19.99 ± 0.17 µM | – | –
CCN(C)C(=O)Cl [EMCC, N,N-ethylmethylcarbaryl chloride] | – | – | – | reactivation of human BChE upon dilution (human BChE [5]; upon dilution): complete and rapid reactivation
CC(C)C[C@@H](CS(=O)(=O)Nc1ccc(Cl)c(Cl)c1)NC(=O)OCc1ccccc1 [Compound 5n, Benzyl {(2S)-1-[(3,4-dichlorophenyl)sulfamoyl]-4-methylpentan-2-yl}carbamate] | 95.1 ± 2.77 µM | 13.5 ± 0.51 µM | 7.04 | –
O=C(N[C@@H](Cc1ccccc1)CS(=O)(=O)NCc1ccccc1)OCc1ccccc1 [Compound 5b, Benzyl [(2S)-1-(benzylsulfamoyl)-3-phenylpropan-2-yl]carbamate] | 76.9 ± 1.52 µM | 86.1 ± 1.91 µM | 0.89 | –
